Experimental findings from patent US11427548B2 (Arvinas Operations, Inc., priority 2015, dated 2022) are described below.

Usually Dmax stands for the greatest extent of degradation seen. Usually DC50 stands for the concentration giving 50% degradation.

Like-named read-outs stand apart in the source and are kept apart here.

In the test the target is T1, Androgen Receptor (Homo sapiens, UniProt P10275).
T1 construct: endogenous in cells; host or cells: VCaP cells
T1 sequence (P10275 1-920): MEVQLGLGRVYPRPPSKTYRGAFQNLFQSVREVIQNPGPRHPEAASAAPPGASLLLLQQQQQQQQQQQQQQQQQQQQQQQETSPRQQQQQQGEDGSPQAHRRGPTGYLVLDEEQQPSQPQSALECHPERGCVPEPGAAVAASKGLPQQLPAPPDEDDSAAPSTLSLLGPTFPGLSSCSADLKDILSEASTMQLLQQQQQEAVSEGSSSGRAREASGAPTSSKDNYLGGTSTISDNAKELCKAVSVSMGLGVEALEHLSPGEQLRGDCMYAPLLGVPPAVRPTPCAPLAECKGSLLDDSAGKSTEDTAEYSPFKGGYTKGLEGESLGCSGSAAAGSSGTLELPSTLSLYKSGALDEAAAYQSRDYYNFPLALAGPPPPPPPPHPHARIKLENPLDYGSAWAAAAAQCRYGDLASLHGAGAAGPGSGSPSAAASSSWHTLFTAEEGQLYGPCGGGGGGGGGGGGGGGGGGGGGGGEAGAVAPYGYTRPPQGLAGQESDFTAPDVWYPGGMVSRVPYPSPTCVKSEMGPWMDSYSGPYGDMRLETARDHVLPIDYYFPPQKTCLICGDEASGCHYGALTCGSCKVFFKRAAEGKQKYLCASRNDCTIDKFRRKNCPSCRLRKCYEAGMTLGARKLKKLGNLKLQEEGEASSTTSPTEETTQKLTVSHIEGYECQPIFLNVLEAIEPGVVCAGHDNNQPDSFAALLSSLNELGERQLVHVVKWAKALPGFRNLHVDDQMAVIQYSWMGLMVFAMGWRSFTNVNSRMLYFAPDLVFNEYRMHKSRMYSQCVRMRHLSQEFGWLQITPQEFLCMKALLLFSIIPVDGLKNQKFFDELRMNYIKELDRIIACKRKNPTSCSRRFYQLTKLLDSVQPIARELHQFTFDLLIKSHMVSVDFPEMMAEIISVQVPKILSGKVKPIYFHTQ
In words: Androgen Receptor ELISA assay (PathScan AR ELISA) in VCaP cells: AR degradation, Dmax and DC50. The test is classed as cell-based. Put shortly: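 VCaP cells, 30,000/well, grown ≥3 days in phenol red-free RPMI with 5% charcoal-stripped FBS; compound added in 0.1% DMSO with 0.1 nM R1881, 7 half-log doses, 24 h. Lysate AR quantified by PathScan sandwich ELISA, HRP/TMB read at 450 nm, giving DC50 and Dmax.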
(In an ELISA, binding on a coated surface is turned into a signal by an enzyme label.)

[1] abbreviates: read-out: VCaP DC50; concentration that caused 50% Androgen Receptor degradation, VCaP cells (Table 32).
[2] abbreviates: VCaP, highest percentage of Androgen Receptor degradation observed, VCaP cells (Table 32); read-out: VCaP Dmax (%).
Setting [3] is: concentration that caused 50% Androgen Receptor degradation, VCaP cells (Table 32); read-out: VCaP DC50.

As to `CC(C)(C)[C@H](NC(=O)COCCCCOc1ccc(-c2ccc(N3C(=S)N(c4ccc(C#N)c(Cl)c4)C(=O)C34CCC4)cc2)cc1)C(=O)N1C[C@H](O)C[C@H]1C(=O)NCc1ccc(-c2cnco2)cc1` [Example 124, (2S,4R)-1-[(2S)-2-{2-[4-(4-{4-[7-(3-chloro-4-cyanophenyl)-8-oxo-6-sulfanylidene-5,7-diazaspiro[3.4]octan-5-yl]phenyl}phenoxy)butoxy]acetamido}-3,3-dimethylbutanoyl]-4-hydroxy-N-{[4-(1,3-oxazol-5-yl)phenyl]methyl}pyrrolidine-2-carboxamide], where the note is “VCaP, read-out: VCaP Dmax (%)”, the Dmax fell in the range of 51 to 70%. The DC50 under setting [1] was less than 50 nM.
In the case of `Cc1cc(N2C(=O)C(C)(C)N(c3ccc(-c4ccc(OCCCCOCC(=O)N[C@H](C(=O)N5C[C@H](O)C[C@H]5C(=O)NCc5ccc(-c6cnco6)cc5)C(C)(C)C)cc4)cc3)C2=S)ccc1C#N` [Example 125, (2S,4R)-1-[(2S)-2-{2-[4-(4-{4-[3-(4-cyano-3-methylphenyl)-5,5-dimethyl-4-oxo-2-sulfanylideneimidazolidin-1-yl]phenyl}phenoxy)butoxy]acetamido}-3,3-dimethylbutanoyl]-4-hydroxy-N-{[4-(1,3-oxazol-5-yl)phenyl]methyl}pyrrolidine-2-carboxamide], the Dmax under setting [2] is 51 to 70%. Also, the DC50 under setting [3] is less than 50 nM.
The corresponding values for `CC(C)(C)[C@H](NC(=O)COCCCCOc1ccc(-c2ccc(N3C(=S)N(c4ccc(C#N)c(F)c4)C(=O)C3(C)C)cc2)cc1)C(=O)N1C[C@H](O)C[C@H]1C(=O)NCc1ccc(-c2cnco2)cc1` [Example 126, (2S,4R)-1-[(2S)-2-{2-[4-(4-{4-[3-(4-cyano-3-fluorophenyl)-5,5-dimethyl-4-oxo-2-sulfanylideneimidazolidin-1-yl]phenyl}phen-oxy)butoxy]acetamido}-3,3-dimethylbutanoyl]-4-hydroxy-N-{[4-(1,3-oxazol-5-yl)phenyl]methyl}pyrrolidine-2-carboxamide] are 51 to 70% and less than 50 nM.
Turning to `Cc1ncsc1-c1ccc(CNC(=O)[C@@H]2C[C@@H](O)CN2C(=O)[C@@H](NC(=O)COc2ccc(Oc3cccc(-c4ccc(N5C(=S)N(c6ccc(C#N)c(C(F)(F)F)c6)C(=O)C5(C)C)cc4)c3)cc2)C(C)(C)C)cc1` [Example 127, (2S,4R)-1-[(2S)-2-(2-{4-[3-(4-{3-[4-cyano-3-(trifluoromethyl)phenyl]-5,5-dimethyl-4-oxo-2-sulfanylideneimidazolidin-1-yl}phenyl)phen-oxy]phenoxy}acetamido)-3,3-dimethylbutanoyl]-4-hydroxy-N-{[4-(4-methyl-1,3-thiazol-5-yl)phenyl]methyl}pyrrolidine-2-carboxamide], the Dmax (VCaP, read-out: VCaP Dmax (%)) is greater than 71%. In addition, the DC50 under setting [1] was less than 50 nM.
In the same order, the values of `Cc1ncsc1-c1ccc(CNC(=O)[C@@H]2C[C@@H](O)CN2C(=O)[C@@H](NC(=O)COCCCOCc2ccc(-c3ccc(N4C(=S)N(c5ccc(C#N)c(C(F)(F)F)c5)C(=O)C4(C)C)cc3)cc2)C(C)(C)C)cc1` [Example 128, (2S,4R)-1-[(2S)-2-[2-(3-{[4-(4-{3-[4-cyano-3-(trifluoromethyl)phenyl]-5,5-dimethyl-4-oxo-2-sulfanylideneimidazolidin-1-yl}phenyl)phen-yl]methoxy}propoxy)acetamido]-3,3-dimethylbutanoyl]-4-hydroxy-N-{[4-(4-methyl-1,3-thiazol-5-yl)phenyl]methyl}pyrrolidine-2-carboxamide] are 51 to 70% and less than 50 nM.
Take `Cc1ncsc1-c1ccc(CNC(=O)[C@@H]2C[C@@H](O)CN2C(=O)[C@@H](NC(=O)COCCC(O)COc2ccc(-c3ccc(N4C(=S)N(c5ccc(C#N)c(C(F)(F)F)c5)C(=O)C4(C)C)cc3)cc2)C(C)(C)C)cc1` (stereo partly drawn) [Example 129, (2S,4R)-1-[(2S)-2-(2-{4-[4-(4-{3-[4-cyano-3-(trifluoromethyl)phenyl]-5,5-dimethyl-4-oxo-2-sulfanylideneimidazolidin-1-yl}phenyl)phenoxy]-3-hydroxybutoxy}acetamido)-3,3-dimethylbutanoyl]-4-hydroxy-N-{[4-(4-methyl-1,3-thiazol-5-yl)phenyl]methyl}pyrrolidine-2-carboxamide]: the Dmax (VCaP, read-out: VCaP Dmax (%)) lay within 51 to 70%. In addition, the DC50 under setting [1] is less than 50 nM.
In the same order, the values of `Cc1ncsc1-c1ccc(CNC(=O)[C@@H]2C[C@@H](O)CN2C(=O)[C@@H](NC(=O)COC[C@H](O)CCOc2ccc(-c3ccc(N4C(=S)N(c5ccc(C#N)c(C(F)(F)F)c5)C(=O)C4(C)C)cc3)cc2)C(C)(C)C)cc1` [Example 130, (2S,4R)-1-[(2S)-2-{2-[(2R)-4-[4-(4-{3-[4-cyano-3-(trifluoromethyl)phenyl]-5,5-dimethyl-4-oxo-2-sulfanylideneimidazolidin-1-yl}phenyl)phenoxy]-2-hydroxybutoxy]acetamido}-3,3-dimethylbutanoyl]-4-hydroxy-N-{[4-(4-methyl-1,3-thiazol-5-yl)phenyl]methyl}pyrrolidine-2-carboxamide] are 51 to 70% and less than 50 nM.
In the same order, the values of `C[C@H](NC(=O)[C@@H]1C[C@@H](O)CN1C(=O)[C@@H](NC(=O)COCCCCOc1ccc(-c2ccc(N3C(=S)N(c4ccc(C#N)c(Cl)c4)C(=O)C3(C)C)cc2)cc1)C(C)(C)C)c1ccc(-c2cnco2)cc1` [Example 132, (2S,4R)-1-[(2S)-2-{2-[4-(4-{4-[3-(3-chloro-4-cyanophenyl)-5,5-dimethyl-4-oxo-2-sulfanylideneimidazolidin-1-yl]phenyl}phenoxy)butoxy]acetamido}-3,3-dimethylbutanoyl]-4-hydroxy-N-[(1S)-1-[4-(1,3-oxazol-5-yl)phenyl]ethyl]pyrrolidine-2-carboxamide] are greater than 71% and less than 50 nM.
Regarding `CC(C)(C)[C@H](NC(=O)COCCCCOc1ccc(-c2ccc(N3C(=S)N(c4cc(Cl)c(C#N)cc4F)C(=O)C3(C)C)cc2)cc1)C(=O)N1C[C@H](O)C[C@H]1C(=O)NCc1ccc(-c2cnco2)cc1` [Example 133, (2S,4R)-1-[(2S)-2-{2-[4-(4-{4-[3-(5-chloro-4-cyano-2-fluorophenyl)-5,5-dimethyl-4-oxo-2-sulfanylideneimidazolidin-1-yl]phenyl}phenoxy)butoxy]acetamido}-3,3-dimethylbutanoyl]-4-hydroxy-N-{[4-(1,3-oxazol-5-yl)phenyl]methyl}pyrrolidine-2-carboxamide], under “VCaP, read-out: VCaP Dmax (%)”, the Dmax was less than 25%.
For `Cc1ncoc1-c1ccc(CNC(=O)[C@@H]2C[C@@H](O)CN2C(=O)[C@@H](NC(=O)COCCCC(=O)Nc2ccc(-c3ccc(N4C(=S)N(c5ccc(C#N)c(C(F)(F)F)c5)C(=O)C4(C)C)cc3)cc2)C(C)(C)C)cc1` [Example 135, (2S,4R)-1-[(2S)-2-[2-(3-{[4-(4-{3-[4-cyano-3-(trifluoromethyl)phenyl]-5,5-dimethyl-4-oxo-2-sulfanylideneimidazolidin-1-yl}phenyl)phenyl]carbamoyl}pro-poxy)acetamido]-3,3-dimethylbutanoyl]-4-hydroxy-N-{[4-(4-methyl-1,3-oxazol-5-yl)phenyl]methyl}pyrrolidine-2-carboxamide], the Dmax (VCaP, read-out: VCaP Dmax (%)) is 51 to 70%. For the same molecule, the DC50 under setting [1] was less than 50 nM.
In the same order, the values of `Cc1cc(OCCCCOCC(=O)N[C@H](C(=O)N2C[C@H](O)C[C@H]2C(=O)NCc2ccc(-c3scnc3C)cc2)C(C)(C)C)ccc1-c1ccc(N2C(=S)N(c3ccc(C#N)c(C(F)(F)F)c3)C(=O)C2(C)C)cc1` [Example 136, (2S,4R)-1-[(2S)-2-(2-{4-[4-(4-{3-[4-cyano-3-(trifluoromethyl)phenyl]-5,5-dimethyl-4-oxo-2-sulfanylideneimidazolidin-1-yl}phenyl)-3-methylphenoxy]butoxy}acetamido)-3,3-dimethylbutanoyl]-4-hydroxy-N-{[4-(4-methyl-1,3-thiazol-5-yl)phenyl]methyl}pyrrolidine-2-carboxamide] are greater than 71% and less than 50 nM.
The corresponding values for `Cc1ncsc1-c1ccc([C@H](C)NC(=O)[C@@H]2C[C@@H](O)CN2C(=O)[C@@H](NC(=O)COCCCCOc2ccc(-c3ccc(N4C(=S)N(c5ccc(C#N)c(C(F)(F)F)c5)C(=O)C4(C)C)c(F)c3)cc2)C(C)(C)C)cc1` [Example 137, (2S,4R)-1-[(2S)-2-(2-{4-[4-(4-{3-[4-cyano-3-(trifluoromethyl)phenyl]-5,5-dimethyl-4-oxo-2-sulfanylideneimidazolidin-1-yl}-3-fluorophenyl)phenoxy]butoxy}acetamido)-3,3-dimethylbutanoyl]-4-hydroxy-N-[(1S)-1-[4-(4-methyl-1,3-thiazol-5-yl)phenyl]ethyl]pyrrolidine-2-carboxamide] are greater than 71% and less than 50 nM.
